Test results taken from ChEMBL document CHEMBL4184182, “Studies on interactions of carbazole derivatives with DNA, cell image, and cytotoxicity” (Bioorg Med Chem, 2018).

What was measured:
Quadruplex DNA [1] = assay: Binding affinity to human telomeric G-quadruplex DNA assessed as absorption maximum at 5 uM after 5 mins in presence of sodium ion by fluorescence titration method (reference value: 405 nanometer); type: nucleic-acid assay
Quadruplex DNA [2] = assay: Binding affinity to c-Myc G-quadruplex DNA (unknown origin) assessed as absorption maximum at 5 uM after 5 mins by fluorescence titration method (reference value: 453 nanometer); type: nucleic-acid assay

| Activity (Quadruplex DNA [1]) | Activity (Quadruplex DNA [2]) | Structure (SMILES) |
| --- | --- | --- |
| 422 nm | – | CCn1c2ccccc2c2cc(/C=C(\C#N)c3ccc[n+](C)c3)ccc21.[I-] |
| – | 506 nm | CCn1c2ccccc2c2cc(/C=C/c3sc4ccccc4[n+]3CC)ccc21.[I-] |
